This experiment concerns A. baumannii. Briefly: minimum inhibitory concentration (MIC) against A. baumannii. The format is cell-based, Acinetobacter baumannii.

As usually defined, the MIC is the least concentration at which growth counts as inhibited. High values mean a less susceptible organism, low ones a more susceptible organism.

The compound `CC(=O)OC[C@H]1O[C@@H]([S-])[C@H](OC(C)=O)[C@@H](OC(C)=O)[C@@H]1OC(C)=O.CCP(CC)CC.[Au+]` [Auranofin, (2,3,4,6-Tetra-O-acetyl-1-thio-β-D-glucopyranosato-κS^1)(triethylphosphoranylidene)gold] returned an MIC of 15.6 µg/mL. Next, Colistin: 1 µg/mL.

Values taken from patent publication US11007216B2, “Combination therapy to achieve enhanced antimicrobial activity” (International Business Machines Corporation, priority 2019, dated 2021).
